Data as given in ChEMBL document CHEMBL1130932, “Hepatoprotective and nitric oxide production inhibitory activities of coumarin and polyacetylene constituents from the roots of Angelica furcijuga” (Bioorg Med Chem Lett, 1998).

Experiments:
Format in all cases: functional
[1] = species: Mus musculus; assay: Inhibitory activity against LPS-induced NO production in mouse peritoneal macrophages was evaluated
[2] = species: Rattus norvegicus; assay: Inhibitory activity against D-GalN-induced cytotoxicity in rat hepatocytes; conditions: Hepatocyte
[3] = species: Rattus norvegicus; assay: Inhibitory activity against D-GalN-induced cytotoxicity in rat hepatocytes at 100 uM; conditions: Hepatocyte
[4] = species: Mus musculus; assay: Inhibitory activity from the roots of Angelica furcijuga on LPS-induced NO production in mouse peritoneal macrophages was evaluated at 100 uM
[5] = species: Mus musculus; assay: Inhibitory activity against LPS-induced NO production in mouse peritoneal macrophages was evaluated at 100 uM

Row | Structure (SMILES) | IC50 [1] | IC50 [2] | inhibition at 100 µM [3] | inhibition at 100 µM [4] | Inhibition [1] | inhibition at 100 µM [5]
1 | C=C[C@@H](O)C#CC#CC/C=C\CCCCCCC | 4.8 µM | > 100 µM | -0.6% |  |  | 
2 | CC1(C)Oc2ccc3ccc(=O)oc3c2[C@@H](O)[C@H]1O | 91 µM | > 100 µM | 6.5% |  |  | 
3 | C/C=C(\C)C(=O)O[C@@H]1c2c(ccc3ccc(=O)oc23)OC(C)(C)[C@@H]1OC(C)=O [PTERYXIN] | 20 µM | > 100 µM | 4.4% |  |  | 
4 | C/C=C(\C)C(=O)O[C@@H]1[C@H](OC(=O)C(C)C)c2c(ccc3ccc(=O)oc23)OC1(C)C | 8.8 µM | > 100 µM | 10% |  |  | 
5 | CC(=O)O[C@@H]1[C@H](OC(=O)C(C)C)c2c(ccc3ccc(=O)oc23)OC1(C)C [SERAVSHANIN] | 4.2 µM | > 100 µM | -2.2% |  |  | 
6 | CCC(C)C(=O)O[C@@H]1c2c(ccc3ccc(=O)oc23)OC(C)(C)[C@@H]1OC(C)=O (stereo partly drawn) | 8.2 µM | > 100 µM | -2.5% |  |  | 
7 | O=c1ccc2ccc(O[C@@H]3O[C@H](COC4OC[C@](O)(CO)[C@H]4O)[C@@H](O)[C@H](O)[C@H]3O)cc2o1 (stereo partly drawn) | > 100 µM | > 100 µM | -2.1% | 36% |  | 
8 | COc1c2ccoc2cc2oc(=O)ccc12 [BERGAPTEN] | > 100 µM | > 100 µM | 23% | 49% |  | 
9 | CC1(C)Oc2ccc3ccc(=O)oc3c2C[C@H]1O[C@@H]1O[C@H](CO)[C@@H](O)[C@H](O)[C@H]1O | > 100 µM | > 100 µM | 1.4% | 21% |  | 
10 | CC(C)(O)C1Cc2cc(CCC(=O)O)c(O[C@@H]3O[C@H](CO)[C@@H](O)[C@H](O)[C@H]3O)cc2O1 (stereo partly drawn) | > 100 µM | > 100 µM | 0.6% | 32% |  | 
11 | CC(C)(O)[C@H](O)Cc1cc2ccc(=O)oc2cc1O[C@@H]1O[C@H](CO)[C@@H](O)[C@H](O)[C@H]1O | > 100 µM | > 100 µM | 5.8% | 49% |  | 
12 | C/C=C(\C)C(=O)O[C@@H]1[C@H](OC(=O)C(C)CC)c2c(ccc3ccc(=O)oc23)OC1(C)C (stereo partly drawn) | 5.1 µM | > 100 µM | -0.5% |  |  | 
13 | CC(=O)O[C@@H]1c2c(ccc3ccc(=O)oc23)OC(C)(C)[C@@H]1OC(=O)C1(C)OC1C (stereo partly drawn) | 53 µM | 29 µM |  |  |  | 
14 | C/C=C(\C)C(=O)O[C@@H]1[C@H](OC(C)=O)c2c(ccc3ccc(=O)oc23)OC1(C)C | 8.8 µM | > 100 µM | 13% |  |  | 
15 | COc1cc(C(O)C(CO)Oc2ccc(/C=C/CO[C@@H]3O[C@H](CO)[C@@H](O)[C@H](O)[C@H]3O)cc2OC)ccc1O (stereo partly drawn) | > 100 µM | > 100 µM | -0.2% |  | -26% | 
16 | CC1(C)Oc2ccc3ccc(=O)oc3c2[C@H](O)[C@H]1O | > 100 µM | > 100 µM | 1.5% |  |  | 36%
17 | C/C=C(\C)C(=O)O[C@@H]1c2c(ccc3ccc(=O)oc23)OC(C)(C)[C@@H]1OC(=O)/C(C)=C/C | 3.4 µM | > 100 µM | 2.8% |  |  | 
18 | CC(=O)O[C@@H]1[C@H](OC(=O)CC(C)C)c2c(ccc3ccc(=O)oc23)OC1(C)C [SUKSDORFIN] | 11 µM | > 100 µM | -3.4% |  |  | 
19 | C=C[C@@H](O)C#CC#C[C@@H](O)/C=C\CCCCCCC [FALCARINDIOL] | 4.4 µM | > 100 µM | -33% |  |  | 
